Measured values reported in paper PMC11876601 (Molecular Systems Biology, 2025).
Like-named read-outs stand apart in the source and are kept apart here.

Assays:
Experiment in all cases: cells
[1] = test system: AsPC-1; parameters: Viability of PDAC cell lines, ATPlite luminescence, 11-dose single-agent curve fit; conditions: Homo sapiens, ASPC1, 72 h, read-out: EC50 [nM]
In short: (§1)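 screening used cells plated at 1000 to 5000 per well one day before treatment. Final DMSO was 0.2%. Each plate held untreated negative-control wells and 5 µM staurosporine positive-control wells.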

[2] = test system: PANC-1; parameters: Viability of PDAC cell lines, ATPlite luminescence, 11-dose single-agent curve fit; conditions: Homo sapiens, PANC-1, 72 h, read-out: EC50 [nM]
In short: as §1

[3] = test system: BxPC-3; parameters: ATPlite luminescence viability of PDAC cell lines, 11-dose single-agent curves, 4-parameter fit; conditions: Homo sapiens, BXPC-3, 72 h, read-out: EC50 [nM]
In short: (§2)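 Drug-combination screening used cells plated at 1000 to 5000 per well one day before treatment. Final DMSO was 0.2%. Each plate held untreated negative-control wells and 5 µM staurosporine positive-control wells.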

[4] = test system: PaTu-8988-T; parameters: ATPlite luminescence viability of PDAC cell lines, 11-dose single-agent curves, 4-parameter fit; conditions: Homo sapiens, PaTu 8988t, 72 h, read-out: EC50 [nM]
In short: as §2

[5] = test system: MiaPaCa-2; parameters: ATPlite luminescence viability of PDAC cell lines, 11-dose single-agent curves, 4-parameter fit; conditions: Homo sapiens, MIA PaCa-2, 72 h, read-out: EC50 [nM]
In short: as §2

[6] = test system: Dan-G; parameters: ATPlite luminescence viability of PDAC cell lines, 11-dose single-agent curves, 4-parameter fit; conditions: 72 h, read-out: EC50 [nM]
In short: as §2

[7] = test system: PSN-1; parameters: ATPlite luminescence viability of PDAC cell lines, 11-dose single-agent curves, 4-parameter fit; conditions: Homo sapiens, PSN1, 72 h, read-out: EC50 [nM]
In short: as §2

[8] = test system: Capan-1; parameters: ATPlite luminescence viability of PDAC cell lines, 11-dose single-agent curves, 4-parameter fit; conditions: Homo sapiens, CAPAN-1, 72 h, read-out: EC50 [nM]
In short: as §2

[9] = test system: Suit2-07; parameters: ATPlite luminescence viability of PDAC cell lines, 11-dose single-agent curves, 4-parameter fit; conditions: 72 h, read-out: EC50 [nM]
In short: as §2

[10] = test system: FAMPAC; parameters: ATPlite luminescence viability of PDAC cell lines, 11-dose single-agent curves, 4-parameter fit; conditions: 72 h, read-out: EC50 [nM]
In short: as §2

[11] = test system: Colo-357; parameters: ATPlite luminescence viability of PDAC cell lines, 11-dose single-agent curves, 4-parameter fit; conditions: Homo sapiens, COLO357, 72 h, read-out: EC50 [nM]
In short: as §2

[12] = test system: HPDE; parameters: ATPlite luminescence viability of PDAC cell lines, 11-dose single-agent curves, 4-parameter fit; conditions: HPDE, 72 h, read-out: EC50 [nM]
In short: as §2

[13] = test system: HuP-T4; parameters: ATPlite luminescence viability of PDAC cell lines, 11-dose single-agent curves, 4-parameter fit; conditions: Homo sapiens, HuP-T4, 72 h, read-out: EC50 [nM]
In short: as §2

[14] = test system: Capan-1; parameters: Viability of PDAC cell lines, ATPlite luminescence, 11-dose single-agent curve fit; conditions: Homo sapiens, CAPAN-1, 72 h, read-out: EC50 [nM]
In short: as §1

[15] = test system: FAMPAC; parameters: Viability of PDAC cell lines, ATPlite luminescence, 11-dose single-agent curve fit; conditions: 72 h, read-out: EC50 [nM]
In short: as §1

[16] = test system: AsPC-1; parameters: ATPlite luminescence viability of PDAC cell lines, 11-dose single-agent curves, 4-parameter fit; conditions: Homo sapiens, ASPC1, 72 h, read-out: EC50 [nM]
In short: as §2

[17] = test system: PANC-1; parameters: ATPlite luminescence viability of PDAC cell lines, 11-dose single-agent curves, 4-parameter fit; conditions: Homo sapiens, PANC-1, 72 h, read-out: EC50 [nM]
In short: as §2

[18] = test system: HuP-T4; parameters: Viability of PDAC cell lines, ATPlite luminescence, 11-dose single-agent curve fit; conditions: Homo sapiens, HuP-T4, 72 h, read-out: EC50 [nM]
In short: as §1

[19] = test system: HPDE; parameters: Viability of PDAC cell lines, ATPlite luminescence, 11-dose single-agent curve fit; conditions: HPDE, 72 h, read-out: EC50 [nM]
In short: as §1

[20] = test system: MiaPaCa-2; parameters: Viability of PDAC cell lines, ATPlite luminescence, 11-dose single-agent curve fit; conditions: Homo sapiens, MIA PaCa-2, 72 h, read-out: EC50 [nM]
In short: as §1

[21] = test system: Dan-G; parameters: Viability of PDAC cell lines, ATPlite luminescence, 11-dose single-agent curve fit; conditions: 72 h, read-out: EC50 [nM]
In short: as §1

[22] = test system: Suit2-07; parameters: Viability of PDAC cell lines, ATPlite luminescence, 11-dose single-agent curve fit; conditions: 72 h, read-out: EC50 [nM]
In short: as §1

[23] = test system: Colo-357; parameters: Viability of PDAC cell lines, ATPlite luminescence, 11-dose single-agent curve fit; conditions: Homo sapiens, COLO357, 72 h, read-out: EC50 [nM]
In short: as §1

Structure (SMILES) | EC50 [2] [nM] | EC50 [3] [nM] | EC50 [4] [nM] | EC50 [5] [nM] | EC50 [6] [nM] | EC50 [7] [nM] | EC50 [8] [nM] | EC50 [9] [nM] | EC50 [10] [nM] | EC50 [11] [nM] | EC50 [12] [nM] | EC50 [13] [nM] | EC50 [14] [nM] | EC50 [16] [nM] | EC50 [17] [nM] | further results
COc1cc(Nc2ncc(F)c(Nc3ccc4c(n3)N(COP(=O)(O)O)C(=O)C(C)(C)O4)n2)cc(OC)c1OC [Fostamatinib] | 658 | 4790 | 1190 | 946 | 1010 | 2020 | 2290 | 1360 | > 10000 | 1410 | > 10000 | 3770 | – | – | – | EC50 [1]: > 10000 nM
CC(C)NC(=O)[C@H]1CC[C@@H](n2/c(=N/C(=O)c3ccc(F)cc3)[nH]c3ccc(CN4CCC(C(C)(C)O)CC4)cc32)CC1 [Belizatinib] | – | 1420 | 580 | 308 | 4630 | 1340 | – | 599 | – | 7390 | 1270 | > 10000 | 8120 | 496 | 1860 | EC50 [15]: 3220 nM
Cc1nc(Nc2ncc(C(=O)Nc3c(C)cccc3Cl)s2)cc(N2CCN(CCO)CC2)n1 [Dasatinib] | 446 | 78.9 | 16.6 | 4.67 | 8640 | 37.1 | 704 | 2600 | 48.5 | 4740 | 580 | 139 | – | – | – | EC50 [1]: > 10000 nM
CC1(C)CC=C(c2nc(C3CC(C)(C)OC(C)(C)C3)ccc2NC(=O)c2nc(C#N)c[nH]2)CC1 [Edicotinib] | – | 1960 | 2070 | 3040 | 3250 | 2160 | 3970 | 2380 | 2850 | 4490 | 2070 | – | – | 2570 | 3070 | EC50 [18]: 1370 nM
Nc1cc(C(F)(F)F)c(-c2cc(N3CCOCC3)nc(N3CCOCC3)n2)cn1 [Buparlisib] | – | – | 724 | 572 | 493 | 638 | 663 | 479 | 752 | 403 | 1130 | 1300 | – | 1030 | 703 | –
CN1CCN(c2ccc3nc(-c4c(N)c5c(F)cccc5[nH]c4=O)[nH]c3c2)CC1 [Dovitinib] | – | – | 3150 | 1680 | 3430 | 2720 | 4250 | 863 | 2170 | 4350 | 4540 | 3570 | – | > 10000 | 4250 | –
COc1cc2c(Oc3ccc4[nH]c(C)cc4c3F)ncnc2cc1OCCCN1CCCC1 [Cediranib] | 7310 | 7970 | 6380 | 10100 | 6330 | > 10000 | – | > 10000 | > 10000 | 10300 | – | 8450 | 8290 | 7780 | – | EC50 [19]: 4910 nM
CC1(COc2ccc3c(c2)ncn3-c2ccc3cccc(N4CCC(N)CC4)c3n2)COC1 [Crenolanib] | – | 3600 | 5450 | 2190 | 5940 | 5250 | – | 4860 | 3340 | 5080 | 3500 | > 10000 | 3710 | > 10000 | 8300 | –
CO[C@@H]1[C@H](N(C)C(=O)c2ccccc2)C[C@H]2O[C@]1(C)n1c3ccccc3c3c4c(c5c6ccccc6n2c5c31)C(=O)NC4 [Midostaurin] | – | – | 385 | – | – | – | – | – | – | – | – | 692 | – | – | – | EC50 [19]: 221 nM
CN(C)C[C@@H]1CCn2cc(c3ccccc32)C2=C(C(=O)NC2=O)c2cn(c3ccccc23)CCO1 [Ruboxistaurin] | 1620 | > 10000 | > 10000 | – | – | > 10000 | – | – | > 10000 | – | > 10000 | > 10000 | 8680 | – | – | EC50 [20]: 6440 nM; EC50 [21]: 5180 nM; EC50 [1]: 8110 nM; EC50 [22]: 3050 nM; EC50 [23]: 5.38 nM
COc1cc2c(Oc3ccc4[nH]c(C)cc4c3F)ccnc2cc1OCC1(N)CC1 [Anlotinib] | – | 1520 | 1520 | 1720 | 1850 | 1920 | 2440 | 1270 | 1580 | 2350 | 6100 | – | – | 3160 | 1960 | EC50 [18]: > 10000 nM
